Consider three compounds from patent publication US5976813A, “Continuous format high throughput screening” (priority 1997, dated 1999).

One assay has as its system VanA. Conditions: statement on known inhibitor used as positive control; cited from earlier work.
In assay [1] the target is S. Cerevisiae Elongation Factor 3 (Saccharomyces cerevisiae, UniProt P16521). Put plainly: Two-step gel assay for phosphate generated by EF-3 ATPase activity stimulated by ribosome binding. Conditions: inhibitor amounts 5 picomole to 200 picomole; FIG. 7. Format: biochemical. On the procedure: A two-step gel assay for detecting phosphate generated by S. Cerevisiae Elongation Factor 3 ATPase activity stimulated by Ribosomes binding
When fungal elongation factor 3 (EF-3) interacts with ribosomes, […] is stimulated. The inventors have applied CF-HTS to the assay for this activity.
An enzyme gel containing EF-3 (a highly temperature sensitive enzyme) and yeast ribosomes in EF-3 assay buffer was prepared. A substrate gel containing 1 mM ATP in assay buffer was also prepared. Both gels contained 2% dimethyl sulfoxide in low melting agarose (Gibco BRL), and were prepared at 37° C. and allowed to set for 30 minutes at 4° C. Serial dilutions of Poly-L-lysine, an inhibitor of EF-3 used as a control sample, was spotted onto PVDC film and dried (sample matrix). The assay was then conducted as in Example 1 by pre-incubating the enzyme gel with the inhibitors on the sample matrix. Then the enzyme gel was placed in contact with the substrate gel for 20 minutes. As in Example 1, the enzyme and substrate gels were stained with Malachite green/Ammonium Molybdate color development cocktail. Then the enzyme gel was imaged with a CCD camera. The inhibitor spots appear as clearer zones in a green background. FIG. 7 illustrates color development on the gel where inhibitor amounts varied from 5 picomole to 200 picomole.

The subject of a further assay is IL-8a receptor. In words: Gel/filter CF-HTS control: ^125 I-IL-8 binding to HEK cells expressing the IL-8a receptor. Conditions: ^125 I-IL-8 in agarose gel diffusing through cell matrix; FIG. 12. On the procedure: HEK cells (ATCC, Bethesda, M.D.) expressing the IL-8a receptor were plated on a 75 mm diameter transwell membrane filter (Corning Costar Corp, Cambridge, Mass.) at a density of about 20 million cells per plate. They were allowed to attach to the membrane filter overnight in buffer (RPMI from Life Technologies, Grand Island, N.Y.) containing 10 mM Hepes (Sigma, St Louis, Mo.) at pH 7.2 and 37° C. After the cells were attached to the filter, the media was removed, and the cells were washed with fresh buffer to remove any unattached cells. The filters were inverted cell-side down and placed at an angle to allow excess media to drain, and then dried for 20 minutes. This was timed so that the cell matrix could be immediately used in the assay described below.
The ligand matrix was prepared by soaking ^125 I labeled IL-8 (Amersham, Inc., Arlington Heights, Ill.) into an agarose gel made by mixing 0.1 g agarose with 10 ml buffer, heating until molten, and then casting in a 8×7×0.075 cm gel apparatus. The gels were soaked overnight at RT while slowly mixing on a rotating platform (New Brunswick Scientific Co., Inc, Edison, N.J.). After soaking, the gels were dried for 20 minutes at RT just prior to use. This was timed so that the gel could be immediately used in the assay. […]

S. Cerevisiae Elongation Factor 3, sequence (P16521 whole entry): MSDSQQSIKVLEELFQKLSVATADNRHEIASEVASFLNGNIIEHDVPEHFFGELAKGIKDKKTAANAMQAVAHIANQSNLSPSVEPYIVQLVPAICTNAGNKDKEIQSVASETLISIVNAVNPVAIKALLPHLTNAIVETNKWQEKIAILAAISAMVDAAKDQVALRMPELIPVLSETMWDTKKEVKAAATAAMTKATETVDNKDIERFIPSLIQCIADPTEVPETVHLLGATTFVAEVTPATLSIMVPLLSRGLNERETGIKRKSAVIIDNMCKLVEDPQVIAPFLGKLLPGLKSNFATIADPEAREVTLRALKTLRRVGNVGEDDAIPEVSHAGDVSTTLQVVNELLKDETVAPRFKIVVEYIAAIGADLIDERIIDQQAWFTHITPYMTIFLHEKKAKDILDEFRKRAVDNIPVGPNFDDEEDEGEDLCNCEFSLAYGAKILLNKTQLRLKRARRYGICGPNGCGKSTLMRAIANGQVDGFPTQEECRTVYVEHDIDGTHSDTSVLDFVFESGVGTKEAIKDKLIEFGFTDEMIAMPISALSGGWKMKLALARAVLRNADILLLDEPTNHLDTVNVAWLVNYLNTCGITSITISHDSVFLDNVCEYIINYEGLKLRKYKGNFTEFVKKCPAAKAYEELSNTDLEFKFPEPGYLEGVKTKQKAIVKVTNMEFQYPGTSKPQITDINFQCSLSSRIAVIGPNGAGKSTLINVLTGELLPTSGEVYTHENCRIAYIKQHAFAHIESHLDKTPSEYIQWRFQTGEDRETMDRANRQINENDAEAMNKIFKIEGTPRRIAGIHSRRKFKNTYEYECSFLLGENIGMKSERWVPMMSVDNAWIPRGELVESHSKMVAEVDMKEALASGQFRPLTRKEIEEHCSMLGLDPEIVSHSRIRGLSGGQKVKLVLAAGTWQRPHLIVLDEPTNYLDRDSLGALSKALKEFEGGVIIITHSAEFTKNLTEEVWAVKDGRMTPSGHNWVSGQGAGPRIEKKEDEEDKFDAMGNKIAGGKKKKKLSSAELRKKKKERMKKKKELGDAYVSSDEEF

Consider `N[C@@H]1CONC1=O` [D-cycloserine], for which, in the assay on VanA, the “inhibition of VanA” value was “inhibits VanA in a dose-dependent manner”.

Regarding Poly-L-lysine, the “inhibition of EF-3 in gel assay (clearer zones in green background)” value in assay [1] is given as “dose dependent signal of the inhibitor”.

In the case of “^125 I-IL-8: ^125 I labeled IL-8 (Amersham)”, the “binding to HEK cells expressing the IL-8a receptor” value in the assay with IL-8a receptor is on record as “dose response”.
